Results as given in PubChem BioAssay (NCI).
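48-hour exposure; five concentrations; linearly interpolated endpoints. TGI: total growth inhibition.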

Key:
Experiment in all cases: NCI tumour cell line growth inhibition, 48 h
[1] = tested on: A498 renal
[2] = tested on: A549 NSCLC
[3] = tested on: CAKI-1 renal
[4] = tested on: CCRF-CEM leukemia
[5] = tested on: COLO 205 colon
[6] = tested on: DLD-1 colon
[7] = tested on: DMS 114 small cell lung
[8] = tested on: DMS 273 small cell lung
[9] = tested on: EKVX NSCLC
[10] = tested on: HCC-2998 colon
[11] = tested on: HCT-116 colon
[12] = tested on: HCT-15 colon
[13] = tested on: HL-60(TB) leukemia
[14] = tested on: HOP-18 NSCLC
[15] = tested on: HOP-62 NSCLC
[16] = tested on: HOP-92 NSCLC
[17] = tested on: HT29 colon
[18] = tested on: IGROV1 ovarian
[19] = tested on: K-562 leukemia
[20] = tested on: KM12 colon
[21] = tested on: KM20L2 colon
[22] = tested on: LOX IMVI melanoma
[23] = tested on: M19-MEL melanoma
[24] = tested on: MALME-3M melanoma
[25] = tested on: MCF7 breast
[26] = tested on: MOLT-4 leukemia
[27] = tested on: NCI-H23 lung
[28] = tested on: NCI-H460 lung
[29] = tested on: NCI-H522 lung
[30] = tested on: NCI/ADR-RES ovarian
[31] = tested on: OVCAR-3 ovarian
[32] = tested on: OVCAR-4 ovarian
[33] = tested on: OVCAR-5 ovarian
[34] = tested on: OVCAR-8 ovarian
[35] = tested on: P388 leukemia
[36] = tested on: P388/ADR leukemia
[37] = tested on: RPMI-8226 leukemia
[38] = tested on: RXF 393 renal
[39] = tested on: SF-268 CNS
[40] = tested on: SF-295 CNS
[41] = tested on: SF-539 CNS
[42] = tested on: SK-MEL-2 melanoma
[43] = tested on: SK-MEL-28 melanoma
[44] = tested on: SK-MEL-5 melanoma
[45] = tested on: SK-OV-3 ovarian
[46] = tested on: SN12C renal
[47] = tested on: SN12K1 renal
[48] = tested on: SNB-19 CNS
[49] = tested on: SNB-75 CNS
[50] = tested on: SNB-78 CNS
[51] = tested on: SW-620 colon
[52] = tested on: U251 CNS
[53] = tested on: UACC-257 melanoma
[54] = tested on: UACC-62 melanoma
[55] = tested on: UO-31 renal
[56] = tested on: XF 498 CNS
[57] = tested on: NCI-H226 lung
[58] = tested on: 786-0 renal
[59] = tested on: ACHN renal
[60] = tested on: LXFL 529 NSCLC
[61] = tested on: M14 melanoma
[62] = tested on: RXF-631 renal
[63] = tested on: SR leukemia
[64] = tested on: TK-10 renal

CC(=O)OCC1OC(NC(=O)N(CCCl)N=O)C(OC(C)=O)C(OC(C)=O)C1OC(C)=O (centres undefined)
TGI [1]: > 100 µM | TGI [2]: > 100 µM | TGI [3]: > 100 µM | TGI [4]: > 100 µM | TGI [5]: > 100 µM | TGI [6]: > 100 µM | TGI [7]: > 100 µM | TGI [8]: > 100 µM | TGI [9]: > 100 µM | TGI [10]: > 100 µM | TGI [11]: > 100 µM | TGI [12]: > 100 µM | TGI [13]: > 100 µM | TGI [14]: > 100 µM | TGI [15]: > 100 µM | TGI [16]: > 100 µM | TGI [17]: > 100 µM | TGI [18]: > 100 µM | TGI [19]: > 100 µM | TGI [20]: > 100 µM | TGI [21]: > 100 µM | TGI [22]: > 100 µM | TGI [23]: > 100 µM | TGI [24]: > 100 µM | TGI [25]: > 100 µM | TGI [26]: > 31.6 µM | TGI [27]: > 100 µM | TGI [28]: > 100 µM | TGI [29]: > 100 µM | TGI [30]: > 100 µM | TGI [31]: > 100 µM | TGI [32]: > 100 µM | TGI [33]: > 100 µM | TGI [34]: > 100 µM | TGI [35]: > 100 µM | TGI [36]: > 100 µM | TGI [37]: > 100 µM | TGI [38]: > 100 µM | TGI [39]: > 100 µM | TGI [40]: > 100 µM | TGI [41]: > 100 µM | TGI [42]: > 100 µM | TGI [43]: > 100 µM | TGI [44]: > 31.6 µM | TGI [45]: > 100 µM | TGI [46]: > 100 µM | TGI [47]: > 100 µM | TGI [48]: > 100 µM | TGI [49]: > 100 µM | TGI [50]: > 100 µM | TGI [51]: > 100 µM | TGI [52]: > 100 µM | TGI [53]: > 100 µM | TGI [54]: > 100 µM | TGI [55]: > 100 µM | TGI [56]: > 100 µM

CCn1c(=O)c(C(=O)O)c(Cl)c2cc3c(cc21)OCO3
TGI [1]: > 100 µM | TGI [2]: > 100 µM | TGI [3]: > 100 µM | TGI [4]: > 100 µM | TGI [5]: > 100 µM | TGI [6]: > 100 µM | TGI [8]: > 100 µM | TGI [9]: > 100 µM | TGI [10]: > 100 µM | TGI [11]: > 100 µM | TGI [12]: > 100 µM | TGI [13]: > 100 µM | TGI [14]: > 100 µM | TGI [15]: > 100 µM | TGI [16]: > 100 µM | TGI [17]: > 100 µM | TGI [18]: > 100 µM | TGI [19]: > 100 µM | TGI [20]: > 100 µM | TGI [21]: > 100 µM | TGI [22]: > 100 µM | TGI [23]: > 100 µM | TGI [24]: > 100 µM | TGI [25]: > 100 µM | TGI [26]: > 100 µM | TGI [57]: > 100 µM | TGI [27]: > 100 µM | TGI [28]: > 100 µM | TGI [29]: > 100 µM | TGI [30]: > 100 µM | TGI [31]: > 100 µM | TGI [32]: > 100 µM | TGI [33]: > 100 µM | TGI [34]: > 100 µM | TGI [35]: > 100 µM | TGI [36]: > 100 µM | TGI [37]: > 100 µM | TGI [38]: > 100 µM | TGI [39]: > 100 µM | TGI [40]: > 100 µM | TGI [41]: > 100 µM | TGI [42]: > 100 µM | TGI [43]: > 100 µM | TGI [44]: > 100 µM | TGI [45]: > 100 µM | TGI [46]: > 100 µM | TGI [47]: > 100 µM | TGI [48]: > 100 µM | TGI [49]: > 100 µM | TGI [50]: > 100 µM | TGI [51]: > 100 µM | TGI [52]: > 100 µM | TGI [53]: > 100 µM | TGI [54]: > 100 µM | TGI [55]: > 100 µM | TGI [56]: > 100 µM

CC(C)OC/N=C(/N)NC#N
TGI [58]: > 100 µM | TGI [1]: > 100 µM | TGI [2]: > 100 µM | TGI [59]: > 100 µM | TGI [3]: > 100 µM | TGI [5]: > 100 µM | TGI [6]: > 100 µM | TGI [7]: > 100 µM | TGI [8]: > 100 µM | TGI [9]: > 100 µM | TGI [10]: > 100 µM | TGI [11]: > 100 µM | TGI [12]: 33.7 µM | TGI [13]: > 100 µM | TGI [14]: > 100 µM | TGI [15]: > 100 µM | TGI [16]: > 100 µM | TGI [17]: > 100 µM | TGI [18]: > 100 µM | TGI [19]: > 100 µM | TGI [20]: > 100 µM | TGI [21]: > 100 µM | TGI [22]: 43.7 µM | TGI [60]: > 100 µM | TGI [61]: > 100 µM | TGI [23]: > 100 µM | TGI [24]: > 100 µM | TGI [26]: > 100 µM | TGI [57]: > 100 µM | TGI [27]: > 100 µM | TGI [28]: > 100 µM | TGI [29]: > 100 µM | TGI [31]: > 100 µM | TGI [32]: > 100 µM | TGI [33]: > 100 µM | TGI [34]: > 100 µM | TGI [37]: 61.2 µM | TGI [38]: > 100 µM | TGI [62]: > 100 µM | TGI [39]: > 100 µM | TGI [40]: > 100 µM | TGI [41]: > 100 µM | TGI [42]: > 100 µM | TGI [43]: > 100 µM | TGI [44]: > 100 µM | TGI [45]: > 100 µM | TGI [46]: > 100 µM | TGI [48]: > 100 µM | TGI [49]: > 100 µM | TGI [50]: > 100 µM | TGI [63]: 49.6 µM | TGI [51]: 45.2 µM | TGI [64]: > 100 µM | TGI [52]: > 100 µM | TGI [53]: > 100 µM | TGI [54]: > 100 µM | TGI [55]: > 100 µM | TGI [56]: > 100 µM

C[C@]12CC[C@H](O)CC1=CC[C@@H]1C2CC[C@]2(C)C(=O)NC(=O)CC12 (some centres undefined)
TGI [58]: > 100 µM | TGI [1]: > 100 µM | TGI [2]: > 100 µM | TGI [59]: > 100 µM | TGI [3]: > 100 µM | TGI [4]: > 100 µM | TGI [5]: > 100 µM | TGI [6]: > 100 µM | TGI [7]: > 100 µM | TGI [8]: > 100 µM | TGI [9]: > 100 µM | TGI [10]: > 100 µM | TGI [11]: > 100 µM | TGI [12]: > 100 µM | TGI [13]: > 100 µM | TGI [14]: > 100 µM | TGI [15]: > 100 µM | TGI [16]: > 100 µM | TGI [17]: > 100 µM | TGI [18]: > 100 µM | TGI [19]: 92.1 µM | TGI [20]: > 100 µM | TGI [21]: > 100 µM | TGI [22]: > 100 µM | TGI [60]: > 100 µM | TGI [61]: > 100 µM | TGI [23]: > 100 µM | TGI [24]: > 100 µM | TGI [26]: > 100 µM | TGI [57]: > 100 µM | TGI [27]: > 100 µM | TGI [28]: > 100 µM | TGI [29]: > 100 µM | TGI [31]: > 100 µM | TGI [32]: > 100 µM | TGI [33]: > 100 µM | TGI [34]: > 100 µM | TGI [37]: 89.8 µM | TGI [38]: > 100 µM | TGI [62]: > 100 µM | TGI [39]: > 100 µM | TGI [40]: > 100 µM | TGI [41]: > 100 µM | TGI [42]: > 100 µM | TGI [43]: > 100 µM | TGI [44]: > 100 µM | TGI [45]: > 100 µM | TGI [46]: > 100 µM | TGI [48]: > 100 µM | TGI [49]: > 100 µM | TGI [50]: > 100 µM | TGI [63]: > 100 µM | TGI [51]: > 100 µM | TGI [64]: > 100 µM | TGI [52]: > 100 µM | TGI [53]: > 100 µM | TGI [54]: > 100 µM | TGI [55]: > 100 µM | TGI [56]: > 100 µM
